From EP0049683A2, “Imidazo-rifamycines, process for their preparation, pharmaceutical preparations containing them and their use” (CIBA-GEIGY AG, priority 1980, dated 1982)
Converted amounts (≈) assume the structure as drawn.

Assays:
Assay type in all cases: cell-based
[1] = test system: Staphylococcus aureus; assay: In vitro antibacterial activity against gram-positive cocci; conditions: at (at or below) the lowest limit of the tested concentration range, 0,005 y/ml
Text: (§1) Die neuen erfindungsgemässen Verbindungen der Formel I zeichnen sich vor allem durch ihre wertvollen pharmakologischen Eigenschaften aus: so besitzen sie gemäss den Resultaten in vitro antibiotische, insbesondere antibakterielle Eigenschaften, wie z.B. einerseits gegen grammpositive Kokken, wie Staphylococcus aureus, (im getesteten Konzentrationsbereich 0,005 bis 128 y/ml),andererseits gegen grammnegative Stäbchenbakterien, wie Enterobacteriaceae, z.B. Escherichia coli, Pseudomonas aeruginosa und Proteus morganii (im getesteten Konzentrationsbereich von 1 bis 64 y/ml), sowie gegen Mycobacterium tuberculosis (im getesteten Konzentrationsbereich von 0,48 bis 1,9 y/ml). […] (Für die Testresultate siehe auch Tabelle -1.)
(§2) Auch die neuen erfindungsgemässen Verbindungen der Formeln V und VI zeichnen sich durch analoge wertvolle pharmakologische Eigenschaften aus, d.h. sie besitzen gemäss den Resultaten in vitro antibiotische, insbesondere antibakterielle Eigenschaften, die sich bezüglich des Anwendungsbereichs sowie der getesteten effektiven Konzentrationen den Verbindungen der Formel I praktisch gleichen. […] (Für die Testresultate siehe auch Tabelle 2.)

[2] = test system: Enterobacteriaceae, z.B. Escherichia coli, Pseudomonas aeruginosa und Proteus morganii; assay: In vitro antibacterial activity against gram-negative rods; conditions: within the stated concentration range, 1 bis 64 y/ml
Text: as §1, §2

[3] = test system: Escherichia coli 2018; assay: Agar dilution MIC in DST agar (Ericsson and Sherris); conditions: for MIC Esch. 2018: in vitro; for MIC: Escherichia coli, 2018, in vitro, read-out: MIC Esch. 2018
Procedure, shortened: (§3)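 Read-out: minimal growth-inhibiting concentration (MIC), µg/ml. Compounds tested in vitro by agar dilution; endpoint is lowest level that still prevents visible growth.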

[4] = test system: Escherichia coli 205; assay: as above; conditions: for MIC Esch. 205: in vitro; for MIC: Escherichia coli, 205, in vitro, read-out: MIC Esch. 205
Procedure, shortened: as §3

[5] = test system: Proteus morganii 1518; assay: as above; conditions: for MIC Prot. 1518: in vitro; for MIC: Morganella morganii, 1518, in vitro, read-out: MIC Prot. 1518
Procedure, shortened: as §3

[6] = test system: Proteus morganii 2359; assay: as above; conditions: for MIC Prot. 2359: in vitro; for MIC: Morganella morganii, 2359, in vitro, read-out: MIC Prot. 2359
Procedure, shortened: as §3

[7] = test system: Pseudomonas aeruginosa K 799/61; assay: as above; conditions: for MIC Pseu. 799: in vitro, agar dilution, DST agar; for MIC: Pseudomonas aeruginosa, K799/61, read-out: MIC Pseu. 799
Procedure, shortened: as §3

[8] = test system: Salmonella Typhimurium 277; assay: as above; conditions: in vitro; for MIC: Salmonella enterica, TYPHIMURIUM, read-out: MIC Salm. 277
Procedure, shortened: as §3

[9] = test system: Staphylococcus aureus 10B; assay: as above; conditions: in vitro; for MIC: Staphylococcus aureus, 10B, read-out: MIC Staph. 10B
Procedure, shortened: as §3

[10] = test system: Staphylococcus aureus 2999; assay: as above; conditions: for MIC Staph. 2999: in vitro; for MIC: Staphylococcus aureus, 2999, in vitro, read-out: MIC Staph. 2999
Procedure, shortened: as §3

[11] = test system: Mycobacterium tuberculosis; assay: as above; conditions: in vitro; for MIC: Mycobacterium tuberculosis, read-out: MIC Myc. tub.

Molecule | Hemmwirkung auf Staphylococcus aureus [1] | Hemmung der Enterobacterien [2] | MIC Esch. 2018 [3] [µg/mL] | MIC Esch. 205 [4] [µg/mL] | MIC Prot. 1518 [5] [µg/mL] | MIC Prot. 2359 [6] [µg/mL] | MIC Pseu. 799 [7] [µg/mL] | MIC Salm. 277 [8] [µg/mL] | MIC Staph. 10B [9] [µg/mL] | MIC Staph. 2999 [10] [µg/mL] | MIC Myc. tub. [11] [µg/mL] | MIC [3] [µg/mL] | MIC [4] [µg/mL] | MIC [5] [µg/mL] | MIC [6] [µg/mL] | MIC [7] [µg/mL] | MIC [8] [µg/mL] | MIC [9] [µg/mL] | MIC [10] [µg/mL] | MIC [11] [µg/mL]
3-(4-Methylpiperazinyl)-methylenamino-Rifamycin S [Verbindung 88] | deutliche Hemmwirkung | wirksam hemmen | – | – | – | – | – | – | – | – | – | – | – | – | – | – | – | – | – | –
3-(4-Phenylpiperazinyl)methylenamino-Rifamycin S [Verbindung 91] | deutliche Hemmwirkung | wirksam hemmen | – | – | – | – | – | – | – | – | – | – | – | – | – | – | – | – | – | –
3-Indolinylmethylenamino-Rifamycin S [Verbindung 82] | deutliche Hemmwirkung | wirksam hemmen | – | – | – | – | – | – | – | – | – | – | – | – | – | – | – | – | – | –
3-Thiomorpholinylmethylenamino-Rifamycin S [Verbindung 87] | deutliche Hemmwirkung | wirksam hemmen | – | – | – | – | – | – | – | – | – | – | – | – | – | – | – | – | – | –
4-(1-Perhydroazocinyl)-imidazolo[4,5-c]rifamycin SV [Verbindung 28] | – | – | 4 | 4 | 2 | 2 | 8 | 16 | 0.005 | 0.005 | 0.97 | – | – | – | – | – | – | – | – | –
4-Pyrrolidinyl-imidazolo[4,5-c]rifamycin SV [Verbindung 19] | deutliche Hemmwirkung | wirksam hemmen | 4 | 2 | 4 | 4 | 8 | 8 | 0.005 | 0.005 | 0.48 | – | – | – | – | – | – | – | – | –
4-[8-Aza-1,4-dioxaspiro-(4,5)-8-decyl]-imidazolo[4,5-c]-rifamycin SV [Verbindung 25] | – | – | 16 | 8 | 8 | 8 | 16 | 16 | 0.005 | 0.005 | 0.97 | – | – | – | – | – | – | – | – | –
COC1C=COC2(C)Oc3c(C)c(O)c4c(O)c(c5nc(N(C)C)[nH]c5c4c3C2=O)NC(=O)C(C)=CC=CC(C)C(O)C(C)C(O)C(C)C(OC(C)=O)C1C (centres unmarked) [Verbindung 1, 4-Dimethylamino-imidazolo[4,5-c]rifamycin SV] | deutliche Hemmwirkung | wirksam hemmen | – | – | – | – | – | – | – | – | – | 4 (≈ 5.23 µM) | 8 (≈ 10.5 µM) | 4 (≈ 5.23 µM) | 8 (≈ 10.5 µM) | 2 (≈ 2.61 µM) | 16 (≈ 20.9 µM) | 0.005 (≈ 0.00654 µM) | 0.005 (≈ 0.00654 µM) | 0.97 (≈ 1.27 µM)
COC1C=COC2(C)Oc3c(C)c(O)c4c(O)c(c5nc(N6CCN(CC7CCCCC7)CC6)[nH]c5c4c3C2=O)NC(=O)C(C)=CC=CC(C)C(O)C(C)C(O)C(C)C(OC(C)=O)C1C (centres unmarked) [Verbindung 5, 4-(4-Cyclohexylmethyl-piperazinyl)-imidazolo[4,5-c]rifamycin SV] | – | – | – | – | – | – | – | – | – | – | – | 4 (≈ 4.43 µM) | 4 (≈ 4.43 µM) | 8 (≈ 8.87 µM) | 16 (≈ 17.7 µM) | 16 (≈ 17.7 µM) | 8 (≈ 8.87 µM) | 0.005 (≈ 0.00554 µM) | 0.005 (≈ 0.00554 µM) | 1.9 (≈ 2.11 µM)
CCN(CC)CCN(CC)c1nc2c([nH]1)c1c(O)c3c(O)c(C)c4c(c32)C(=O)[C@@](C)(O/C=C/[C@H](OC)[C@@H](C)[C@@H](OC(C)=O)[C@H](C)[C@H](O)[C@H](C)[C@@H](O)[C@@H](C)/C=C/C=C(/C)C(=O)N1)O4 [Verbindung 18, 4-[N-Ethyl-N-(2-diethylaminoethyl)-amino]-imidazolo-[4,5-c]rifamycin SV] | – | – | – | – | – | – | – | – | – | – | – | 4 (≈ 4.63 µM) | 2 (≈ 2.31 µM) | 4 (≈ 4.63 µM) | 2 (≈ 2.31 µM) | 8 (≈ 9.26 µM) | 16 (≈ 18.5 µM) | 0.005 (≈ 0.00579 µM) | 0.005 (≈ 0.00579 µM) | 0.48 (≈ 0.556 µM)
C#CCN1CCN(c2nc3c([nH]2)c2c(O)c4c(O)c(C)c5c(c43)C(=O)[C@@](C)(O/C=C/[C@H](OC)[C@@H](C)[C@@H](OC(C)=O)[C@H](C)[C@H](O)[C@H](C)[C@@H](O)[C@@H](C)/C=C/C=C(/C)C(=O)N2)O5)CC1 [Verbindung 49, 4-(4-Propargylpiperazinyl)-imidazolo[4,5-c]rifamycin SV] | – | – | – | – | – | – | – | – | – | – | – | 32 (≈ 37.9 µM) | 8 (≈ 9.48 µM) | 8 (≈ 9.48 µM) | 8 (≈ 9.48 µM) | 8 (≈ 9.48 µM) | 32 (≈ 37.9 µM) | 0.001 (≈ 0.00118 µM) | 0.001 (≈ 0.00118 µM) | –
CO[C@H]1/C=C/O[C@@]2(C)Oc3c(C)c(O)c4c(O)c(c5nc(N6CCN(C7CCCC7)CC6)[nH]c5c4c3C2=O)NC(=O)/C(C)=C\C=C\[C@H](C)[C@H](O)[C@@H](C)[C@@H](O)[C@@H](C)[C@H](OC(C)=O)[C@@H]1C [Verbindung 50, 4-(4-Cyclopentylpiperazinyl)-imidazolo[4,5-c]rifamycin SV] | – | – | – | – | – | – | – | – | – | – | – | 8 (≈ 9.15 µM) | 8 (≈ 9.15 µM) | 8 (≈ 9.15 µM) | 8 (≈ 9.15 µM) | 8 (≈ 9.15 µM) | 32 (≈ 36.6 µM) | 0.01 (≈ 0.0114 µM) | 0.01 (≈ 0.0114 µM) | –
CO[C@H]1/C=C/O[C@@]2(C)Oc3c(C)c(O)c4c(O)c(c5nc(N6CCN(c7cccc(C(F)(F)F)c7)CC6)[nH]c5c4c3C2=O)NC(=O)/C(C)=C\C=C\[C@H](C)[C@H](O)[C@@H](C)[C@@H](O)[C@@H](C)[C@H](OC(C)=O)[C@@H]1C [Verbindung 53, 4-[4-(3-Trifluormethylphenyl)-piperazinyl]-imidazolo-[4,5-c]rifamycin SV] | – | – | – | – | – | – | – | – | – | – | – | 8 (≈ 8.42 µM) | 8 (≈ 8.42 µM) | 2 (≈ 2.11 µM) | 8 (≈ 8.42 µM) | 32 (≈ 33.7 µM) | 32 (≈ 33.7 µM) | 0.01 (≈ 0.0105 µM) | 0.01 (≈ 0.0105 µM) | –
CO[C@H]1/C=C/O[C@@]2(C)Oc3c(C)c(O)c4c(O)c(c5nc(N6CCN(CC7CC7)CC6)[nH]c5c4c3C2=O)NC(=O)/C(C)=C\C=C\[C@H](C)[C@H](O)[C@@H](C)[C@@H](O)[C@@H](C)[C@H](OC(C)=O)[C@@H]1C [Verbindung 54, 4-(4-Cyclopropylmethylpiperazinyl)-imidazolo[4,5-c]rifamycin SV] | – | – | – | – | – | – | – | – | – | – | – | 8 (≈ 9.3 µM) | 8 (≈ 9.3 µM) | 8 (≈ 9.3 µM) | 8 (≈ 9.3 µM) | 16 (≈ 18.6 µM) | 32 (≈ 37.2 µM) | 0.005 (≈ 0.00581 µM) | 0.005 (≈ 0.00581 µM) | –
CO[C@H]1/C=C/O[C@@]2(C)Oc3c(C)c(O)c4c(O)c(c5nc(N6CCN(CC7CCCC7)CC6)[nH]c5c4c3C2=O)NC(=O)/C(C)=C\C=C\[C@H](C)[C@H](O)[C@@H](C)[C@@H](O)[C@@H](C)[C@H](OC(C)=O)[C@@H]1C [Verbindung 55, 4-(4-Cyclopentylmethylpiperazinyl)-imidazolo[4,5-c]-rifamycin SV] | – | – | – | – | – | – | – | – | – | – | – | 1 (≈ 1.13 µM) | 8 (≈ 9.01 µM) | 2 (≈ 2.25 µM) | 2 (≈ 2.25 µM) | 32 (≈ 36 µM) | 32 (≈ 36 µM) | 0.01 (≈ 0.0113 µM) | 0.001 (≈ 0.00113 µM) | –
CO[C@H]1/C=C/O[C@@]2(C)Oc3c(C)c(O)c4c(O)c(c5nc(N6CCN(Cc7ccccc7)CC6)[nH]c5c4c3C2=O)NC(=O)/C(C)=C\C=C\[C@H](C)[C@H](O)[C@@H](C)[C@@H](O)[C@@H](C)[C@H](OC(C)=O)[C@@H]1C [Verbindung 57, 4-(4-Benzylpiperazinyl)-imidazolo[4,5-c]rifamycin SV] | – | – | – | – | – | – | – | – | – | – | – | 4 (≈ 4.46 µM) | 8 (≈ 8.93 µM) | 4 (≈ 4.46 µM) | 4 (≈ 4.46 µM) | 16 (≈ 17.9 µM) | 16 (≈ 17.9 µM) | 0.005 (≈ 0.00558 µM) | 0.005 (≈ 0.00558 µM) | 0.97 (≈ 1.08 µM)
CO[C@H]1/C=C/O[C@@]2(C)Oc3c(C)c(O)c4c(O)c(c5nc(N6CCN(c7ccccn7)CC6)[nH]c5c4c3C2=O)NC(=O)/C(C)=C\C=C\[C@H](C)[C@H](O)[C@@H](C)[C@@H](O)[C@@H](C)[C@H](OC(C)=O)[C@@H]1C [Verbindung 59, 4-[4-(2-Pyridyl)-piperazinyl]-imidazolo[4,5-c]rifamycin SV] | – | – | – | – | – | – | – | – | – | – | – | 8 (≈ 9.06 µM) | 8 (≈ 9.06 µM) | 2 (≈ 2.26 µM) | 8 (≈ 9.06 µM) | 8 (≈ 9.06 µM) | 32 (≈ 36.2 µM) | 0.01 (≈ 0.0113 µM) | 0.01 (≈ 0.0113 µM) | –
CO[C@H]1/C=C/O[C@@]2(C)Oc3c(C)c(O)c4c(O)c(c5nc(N6CCN(Cc7ccccn7)CC6)[nH]c5c4c3C2=O)NC(=O)/C(C)=C\C=C\[C@H](C)[C@H](O)[C@@H](C)[C@@H](O)[C@@H](C)[C@H](OC(C)=O)[C@@H]1C [Verbindung 60, 4-[4-(2-Pyridylmethyl)-piperazinyl]-imidazolo[4,5-c]-rifamycin SV] | – | – | – | – | – | – | – | – | – | – | – | 32 (≈ 35.7 µM) | 32 (≈ 35.7 µM) | 32 (≈ 35.7 µM) | 32 (≈ 35.7 µM) | 64 (≈ 71.3 µM) | 128 (≈ 143 µM) | 0.02 (≈ 0.0223 µM) | 0.02 (≈ 0.0223 µM) | –
